Test results published in US20160120979A1, “METHOD OF APPLYING A COMPOSITION AND PHARMACEUTICAL COMPOSITION WITH A REGIMEN OF ADMINISTERING IT” (priority 2013, published 2016).
≈ marks a conversion by molar mass, not a printed value. Like-named read-outs stand apart in the source and are kept apart here.

What was measured:
[1] = system: Staphylococcus aureus MU500; test: Experiment 12: replication on antibiotic agar after pulsed 400 nm irradiation; format: cell-based; details: 24 hours incubation; for E: Staphylococcus aureus MU500 (no irradiation), replication: antibiotic 10 mg/l in MH agar; for F: Staphylococcus aureus MU500 (irradiation), replication: antibiotic 10 mg/l, 400 nm LED pulses 0.02 ms, 1 kHz, 10 minutes
Description: (§1) 15′000′000 multi-resistant bacteriae (0.050 ml of a McFarland of 1) were put on 40 mm diameter petri dishes. The petri dishes comprised MH agar with or without antibiotic.
(§2) The LED power during 0.02 ms was measured to be 0.63 W on a Thorlabs power sensor with a surface area of 2.2×2.2 mm representing a power of 13 mW/cm^2.

[2] = system: MU50 multi-drug resistant bacterial cells; test: Experiment 2: moxifloxacin with UV-A on MU50 (CFU); format: cell-based, Staphylococcus aureus; details: for control: CFU without UVA: no UVA
Text: This low concentration was chosen so as to detect threshold effects at the low edge of a just marginally effective concentration level of the antibiotic.

Pseudomonas aeruginosa = test: Experiment 12: replication on antibiotic agar after pulsed 400 nm irradiation; format: cell-based; details: 24 hours incubation; for A: Pseudomonas aeruginosa (no irradiation), replication: antibiotic 10 mg/l in MH agar; for B: Pseudomonas aeruginosa (irradiation), replication: antibiotic 10 mg/l, 400 nm LED pulses 0.02 ms, 1 kHz, 10 minutes
Description: as §1
(§3) […]. The LED power during 0.02 ms was measured to be 0.63 W on a Thorlabs power sensor with a surface area of 2.2×2.2 mm representing a power of 13 mW/cm^2.

Acinetobacter [3] = test: as above; format: cell-based; details: 24 hours incubation; for C: Acinetobacter (no irradiation), replication: antibiotic 10 mg/l in MH agar; for D Acinetobacter (irradiation), replication: antibiotic 10 mg/l, 400 nm LED pulses 0.02 ms, 1 kHz, 10 minutes
Description: as §1, §3

fibroblasts = format: cell-based
Description: In the second toxicity test fibroblasts were grown in RPMI cell culture medium medium with 10% fetal bovine serum and 1% of penicillin-streptomycin-fungizione (100×).
A: pulsed for 10 ms on and 90 ms of for 10 minutes or
B: pulsed for 5 ms on and 45 ms of for 10 minutes
C: no exposure to electromagnetic radiation
The result was obtained by counting viable cells for determination of the percentage of viable cells, with 100% viability being equal to the number of cells delivered to each well.

Acinetobacter [4] = format: cell-based; details: remaining bacteria of experiment 12 proliferated and treated again
Description: as §1, §2
(§4) After the irradiation treatment according to experiment 12, remaining bacteria were allowed to proliferate and then were subject to the treatment according to experiment 12 again in order to test for possible new resistances to the treatment. The values in the following table are designated as in experiment 12: […]

[5] = system: Staphylococcus aureus MU500; format: cell-based; details: remaining bacteria of experiment 12 proliferated and treated again
Description: as §1, §2, §4

Mice fibroblast = format: cell-based; details: Tobramycin 75, Tetracycline 10, Ciprofloxacin 1 μg/ml; 30 min pre-incubation; no treatment, CXL 18 mW/cm2 5 min or laser 405 nm 1 min; 24 hours
Description: The number of colony forming units (CFU) was determined after 24 hours of incubation at 37° C.

[6] = system: MU50 multidrug-resistant Staphylococcus aureus strain (MRSA); test: Minimum inhibitory concentration (MIC) on MU50; format: cell-based; details: Staphylococcus aureus, MRSA; overnight incubation; read-out: MIC
Text: For some of the experimental tests MU50 bacteria were used. MU50 is a multidrug-resistant Staphylococcus aureus strain (MRSA). MRSA are bacteria which have naturally evolved under antibiotic selection pressure and which are known to be resistant to antibiotics including penicillins (methicillin, dicloxacillin, nafcillin, oxacillin, etc.) and cephalosporins. MU50 is additionally resistant to macrolides, quinolones and aminoglycosides.
The minimum inhibitory concentration (MIC), which inhibits the visible growth of a microorganism after an overnight incubation was determined for the following antibiotics: […]

[7] = system: chemotherapy resistant stage 4 (metastatic) small cells lung carcinoma cells; test: Experiment 10: metabolic activity (CellTiter-Glo) of resistant neoplastic cells after photo-activated oncological drugs; details: sample 4, Topotecan 0.07 μg/ml
[8] = sample 1A: moxifloxacin during UV 5 μg/ml, after UV 7.5 μg/ml for 2 hours, UV-A 365 nm 10 mW/cm^2 10 min
[9] = sample 1B: moxifloxacin during UV 5 μg/ml, after UV 2.5 μg/ml (NaCl added), UV-A 365 nm 10 mW/cm^2 10 min

**Q.** How did the “E: Staphylococcus aureus MU500 (no irradiation), replication” value [1] turn out when `COc1c(N2C[C@@H]3CCCN[C@@H]3C2)c(F)cc2c(=O)c(C(=O)O)cn(C3CC3)c12` [Moxifloxacin] was run?
**A.** R (Bacteria can replicate after the treatment)

**Q.** And the “F: Staphylococcus aureus MU500 (irradiation), replication” value [1]?
**A.** NR (No replication)

**Q.** And the “control: CFU without UVA” value ([2]; sample 1A: moxifloxacin during 5 μg/ml, after 7.5 μg/ml for 2 hours)?
**A.** 516 CFU

**Q.** And the “CFU with UVA” value [2, 8]?
**A.** 3 CFU

**Q.** And the “CFU with UVA, percentage in brackets (survival rate)” value [2, 8]?
**A.** 0%

**Q.** What about the “control: CFU without UVA” value ([2]; sample 1B: moxifloxacin during 5 μg/ml, after 2.5 μg/ml (NaCl added)) of the same compound?
**A.** 400 CFU

**Q.** And the “CFU with UVA” value [2, 9]?
**A.** 119 CFU

**Q.** What about the “CFU with UVA, percentage in brackets” value [2, 9] of the same compound?
**A.** 30%

**Q.** And the “A: Pseudomonas aeruginosa (no irradiation), replication” value (Pseudomonas aeruginosa)?
**A.** R (Bacteria can replicate after the treatment)

**Q.** And the “B: Pseudomonas aeruginosa (irradiation), replication” value (Pseudomonas aeruginosa)?
**A.** NR (No replication)

**Q.** And the “C: Acinetobacter (no irradiation), replication” value (Acinetobacter [3])?
**A.** R (Bacteria can replicate after the treatment)

**Q.** And the “D Acinetobacter (irradiation), replication” value (Acinetobacter [3])?
**A.** NR (No replication)

**Q.** What about the “Percentage of viable cells” value (fibroblasts; C: no exposure to electromagnetic radiation, antibiotic 3-10 μg/ml final) of the same compound?
**A.** 85%

**Q.** And the “D Acinetobacter (irradiation), replication, second treatment” value (Acinetobacter [4])?
**A.** NR (No replication)

**Q.** And the “C: Acinetobacter (no irradiation), replication, second treatment” value (Acinetobacter [4])?
**A.** R (Bacteria can replicate after the treatment)

**Q.** And the “F: Staphylococcus aureus MU500 (irradiation), replication, second treatment” value [5]?
**A.** PR (Bacteria can replicate partially)

**Q.** What about the “E: Staphylococcus aureus MU500 (no irradiation), replication, second treatment” value [5] of the same compound?
**A.** R (Bacteria can replicate after the treatment)

**Q.** For `CN(C)[C@@H]1C(O)=C(C(N)=O)C(=O)[C@@]2(O)C(O)=C3C(=O)c4c(O)cccc4[C@@](C)(O)C3CC12` (stereo partly shown) [Tetracycline], which “E: Staphylococcus aureus MU500 (no irradiation), replication” value [1] is on record?
**A.** R (Bacteria can replicate after the treatment)

**Q.** And the “F: Staphylococcus aureus MU500 (irradiation), replication” value [1]?
**A.** NR (No replication)

**Q.** And the “toxicity in term of necrosis and apoptosis” value (Mice fibroblast)?
**A.** No toxicity in term of necrosis and apoptosis

**Q.** And the “A: Pseudomonas aeruginosa (no irradiation), replication” value (Pseudomonas aeruginosa)?
**A.** R (Bacteria can replicate after the treatment)

**Q.** And the “B: Pseudomonas aeruginosa (irradiation), replication” value (Pseudomonas aeruginosa)?
**A.** NR (No replication)

**Q.** What about the “C: Acinetobacter (no irradiation), replication” value (Acinetobacter [3]) of the same compound?
**A.** R (Bacteria can replicate after the treatment)

**Q.** What about the “D Acinetobacter (irradiation), replication” value (Acinetobacter [3]) of the same compound?
**A.** NR (No replication)

**Q.** What about the MIC [6] of the same compound?
**A.** 32 mg/L (≈ 72 µM)

**Q.** What about the “Percentage of viable cells Normalized for the dead cell in NaCl group including light” value (fibroblasts; A: 405 nm pulsed 10 ms on, 90 ms off for 10 minutes) of the same compound?
**A.** 52%

**Q.** And the “Percentage of viable cells Normalized for the dead cell in NaCl group including light” value (fibroblasts; B: 405 nm pulsed 5 ms on, 45 ms off for 10 minutes)?
**A.** 57%

**Q.** What about the “D Acinetobacter (irradiation), replication, second treatment” value (Acinetobacter [4]) of the same compound?
**A.** NR (No replication)

**Q.** And the “C: Acinetobacter (no irradiation), replication, second treatment” value (Acinetobacter [4])?
**A.** R (Bacteria can replicate after the treatment)

**Q.** What about the “F: Staphylococcus aureus MU500 (irradiation), replication, second treatment” value [5] of the same compound?
**A.** NR (No replication)

**Q.** And the “E: Staphylococcus aureus MU500 (no irradiation), replication, second treatment” value [5]?
**A.** R (Bacteria can replicate after the treatment)

**Q.** With `CC[C@@]1(O)C(=O)OCc2c1cc1n(c2=O)Cc2cc3c(CN(C)C)c(O)ccc3nc2-1` [Topotecan] as the compound, how does the “cell metabolic activity (luminescence, ATP) after normalization with the controls” value ([7]; A: pulse ON 10 ms, 0.1 J, OFF 90 ms, 10 minutes) read?
**A.** 7%

**Q.** And the “cell metabolic activity (luminescence, ATP) after normalization with the controls” value ([7]; B: pulse ON 10 ms, 0.01-0.001 J, OFF 90 ms, 10 minutes)?
**A.** 52%

**Q.** What about the “cell metabolic activity (luminescence, ATP) after normalization with the controls” value ([7]; C: control no pulse) of the same compound?
**A.** 100%

**Q.** And the “cell metabolic activity (luminescence, ATP) after normalization with the controls” value ([7]; D: control no pulse)?
**A.** 100%

**Q.** What about the “cell metabolic activity (luminescence, ATP) after normalization with the controls” value ([7]; E: pulse ON 10 ms, 0.01-0.001 J, OFF 90 ms, 5 minutes) of the same compound?
**A.** 47%

**Q.** What about the “cell metabolic activity (luminescence, ATP) after normalization with the controls” value ([7]; F: pulse ON 10 ms, 0.1 J, OFF 90 ms, 5 minutes) of the same compound?
**A.** 5%
